For assay [1], the target named is T1, Vitamin D3 receptor (Homo sapiens) (UniProt P11473).
T1 sequence (whole entry): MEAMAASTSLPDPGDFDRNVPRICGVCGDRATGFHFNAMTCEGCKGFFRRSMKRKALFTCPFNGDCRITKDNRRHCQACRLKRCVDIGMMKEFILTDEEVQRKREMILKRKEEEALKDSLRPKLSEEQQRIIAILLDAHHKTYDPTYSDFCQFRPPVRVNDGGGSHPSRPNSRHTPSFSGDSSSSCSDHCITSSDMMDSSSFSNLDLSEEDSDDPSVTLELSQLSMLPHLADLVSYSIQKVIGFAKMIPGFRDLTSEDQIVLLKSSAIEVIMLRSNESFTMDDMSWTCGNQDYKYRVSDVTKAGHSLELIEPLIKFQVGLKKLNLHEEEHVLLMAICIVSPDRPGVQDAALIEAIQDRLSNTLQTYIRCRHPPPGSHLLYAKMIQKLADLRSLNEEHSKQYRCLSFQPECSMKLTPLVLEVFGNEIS
Kind of assay: Binding affinity against Vitamin D3 receptor with reference to compound 1.

In assay [2] the target is T1, Vitamin D3 receptor (Homo sapiens). Kind of assay: Binding affinity for Vitamin D3 receptor compared to compound 1; value ranges from 5-10.
Assay [3] has the same target. Kind of assay: Binding affinity against Vitamin D3 receptor with reference to compound 1; value ranges from 2-5.
For assay [4] the target is unchanged. The assay can be described thus: Binding affinity against Vitamin D3 receptor with reference to compound 1; value ranges from 15-30.

In assay [1], `C=C1/C(=C/C=C2/CCC[C@@]3(C)[C@H]2CC[C@H]3[C@@H](C)CCCCC(O)(CC)CC)C[C@@H](O)C[C@@H]1O` had an A/Ad of 5. `C=C1/C(=C/C=C2/CCC[C@]3(C)C(C(C)OCCC(C)(C)O)CC[C@@H]23)C[C@@H](O)C[C@@H]1O` (single isomer, unassigned) gave an A/Ad in assay [2] of 10. With `C=C1/C(=C/C=C2/CCC[C@]3(C)[C@@H]([C@H](C)CCCC(O)(CC)CC)CC[C@@H]23)C[C@@H](O)C[C@@H]1O`, in assay [3], the A/Ad was determined as 5. Consider `C=C1/C(=C/C=C2/CCC[C@]3(C)[C@@H]([C@@H](C)OCCCC(O)(CC)CC)CC[C@@H]23)C[C@@H](O)C[C@@H]1O`, for which the A/Ad in assay [1] worked out at 200000. On the same count and under the same terms, for `C=C1/C(=C/C=C2/CCC[C@]3(C)[C@@H](C(C)COCC(C)(C)O)CC[C@@H]23)C[C@@H](O)C[C@@H]1O` (some centres undefined) the value was 0.2. The same measure, in the same setting: for `C=C1/C(=C/C=C2/CCC[C@]3(C)[C@@H]([C@@H](C)CCCCC(O)(CC)CC)CC[C@@H]23)C[C@@H](O)C[C@@H]1O` the value was 200; for `C=C1/C(=C/C=C2/CCC[C@]3(C)C([C@H](C)OCCCC(O)(CC)CC)CC[C@@H]23)C[C@@H](O)C[C@@H]1O` (single isomer, unassigned), 20. Regarding `C=C1/C(=C/C=C2/CCC[C@]3(C)[C@@H](C(C)OCCC(O)(CC)CC)CC[C@@H]23)C[C@@H](O)C[C@@H]1O` (some centres undefined), the A/Ad in assay [4] came to 30.

The compound `C=C1/C(=C/C=C2/CCC[C@]3(C)[C@@H]([C@@H](C)CCCC(O)(CC)CC)CC[C@@H]23)C[C@@H](O)C[C@@H]1O` registered an A/Ad in assay [1] of 100.

(Values after ChEMBL document CHEMBL1149112, “Predicting the cell differentiation activity of 1 alpha,25-dihydroxyvitamin D3 side chain analogues from docking simulations” (J Med Chem, 2004).)
